In ChEMBL document CHEMBL3885881, “DrugMatrix”:

Species on record: Rattus norvegicus
Assay: DrugMatrix - Regimen: Daily Repeat
Format: toxicity, organism-based, Sprague-Dawley
Design: regimen Daily Repeat, gender Male, age 6-8 weeks
Settings: in vivo, po, route oral GAVAGE, […]; for ABSOLUTE BASOPHIL / BASOPHIL / NUCLEATED RED BLOOD CELLS / ABSOLUTE EOSINOPHIL / EOSINOPHIL / HEMOGLOBIN / PLATELET COUNT / ABSOLUTE LYMPHOCYTE / ABSOLUTE MONOCYTE / ABSOLUTE SEGMENTED NEUTROPHIL / ERYTHROCYTE COUNT / HEMATOCRIT / LYMPHOCYTE / MEAN CORPUSCULAR HEMOGLOBIN CONCENTRATION / MEAN CORPUSCULAR VOLUME: tissue Blood; for ASPARTATE AMINOTRANSFERASE / ALANINE AMINOTRANSFERASE / ALBUMIN / ALKALINE PHOSPHATASE / BLOOD UREA NITROGEN / CARBON DIOXIDE / CREATINE PHOSPHOKINASE / CREATININE / LACTATE DEHYDROGENASE / TOTAL BILIRUBIN / TOTAL PROTEIN / URIC ACID: tissue Plasma
[1] = 0 mg/kg, 72 h, dose level Control, time 3 day
[2] = 0 mg/kg, 120 h, dose level Control, time 5 day
[3] = 0 mg/kg, dose level Control, time 7 day
[4] = 43 mg/kg, 72 h, dose level Low, time 3 day
[5] = 43 mg/kg, 120 h, dose level Low, time 5 day
[6] = 100 mg/kg, 72 h, dose level M1, time 3 day
[7] = 100 mg/kg, dose level M1, time 7 day
[8] = 215 mg/kg, 72 h, dose level M2, time 3 day

## CC(C)OC(=O)C(C)(C)Oc1ccc(C(=O)c2ccc(Cl)cc2)cc1 [FENOFIBRATE]
[1]
  ABSOLUTE BASOPHIL: 0 CELLS/uL
  BASOPHIL: 0%
  NUCLEATED RED BLOOD CELLS: 0 /100WBC
[2]
  ABSOLUTE BASOPHIL: 0 CELLS/uL
  ABSOLUTE EOSINOPHIL: 0 CELLS/uL
  BASOPHIL: 0%
  EOSINOPHIL: 0%
  HEMOGLOBIN: 13.5 G/DL
  PLATELET COUNT: 807.17 x10E3/uL
  ASPARTATE AMINOTRANSFERASE: 83 u/L
[3]
  ABSOLUTE BASOPHIL: 0 CELLS/uL
  ABSOLUTE EOSINOPHIL: 19 CELLS/uL
  ABSOLUTE LYMPHOCYTE: 7803.5 CELLS/uL
  ABSOLUTE MONOCYTE: 117.83 CELLS/uL
  ABSOLUTE SEGMENTED NEUTROPHIL: 1093 CELLS/uL
  BASOPHIL: 0%
  EOSINOPHIL: 0.17%
  ERYTHROCYTE COUNT: 5.84 x10E6/uL
  HEMATOCRIT: 35.75%
  HEMOGLOBIN: 13.87 G/DL
  LYMPHOCYTE: 87.17%
  MEAN CORPUSCULAR HEMOGLOBIN CONCENTRATION: 38.8 G/DL
  MEAN CORPUSCULAR VOLUME: 61.25 fL
  NUCLEATED RED BLOOD CELLS: 0 /100WBC
  PLATELET COUNT: 1098.67 x10E3/uL
  ALANINE AMINOTRANSFERASE: 66 u/L
  ALBUMIN: 4.3 G/DL
  ALKALINE PHOSPHATASE: 291.83 u/L
  ASPARTATE AMINOTRANSFERASE: 80.5 u/L
  BLOOD UREA NITROGEN: 15.67 mg/dL
  CARBON DIOXIDE: 30 mmol/L
  CREATINE PHOSPHOKINASE: 363.33 u/L
  CREATININE: 0.25 mg/dL
  LACTATE DEHYDROGENASE: 219.67 u/L
  TOTAL BILIRUBIN: 0.12 mg/dL
  TOTAL PROTEIN: 6.33 G/DL
  URIC ACID: 0.75 mg/dL
[4]
  ABSOLUTE BASOPHIL: 0 CELLS/uL
  ABSOLUTE EOSINOPHIL: 76 CELLS/uL
  ABSOLUTE LYMPHOCYTE: 10300 CELLS/uL
  ABSOLUTE MONOCYTE: 0 CELLS/uL
  ABSOLUTE SEGMENTED NEUTROPHIL: 324 CELLS/uL
  BASOPHIL: 0%
  EOSINOPHIL: 0.67%
  ERYTHROCYTE COUNT: 5.15 x10E6/uL
  HEMATOCRIT: 32.83%
  HEMOGLOBIN: 12.83 G/DL
  LYMPHOCYTE: 96.33%
  MEAN CORPUSCULAR HEMOGLOBIN CONCENTRATION: 39.07 G/DL
  MEAN CORPUSCULAR VOLUME: 63.77 fL
  NUCLEATED RED BLOOD CELLS: 0.33 /100WBC
  PLATELET COUNT: 922 x10E3/uL
  ALANINE AMINOTRANSFERASE: 71 u/L
  ALBUMIN: 3.7 G/DL
  ALKALINE PHOSPHATASE: 389.33 u/L
  ASPARTATE AMINOTRANSFERASE: 87.67 u/L
  BLOOD UREA NITROGEN: 7 mg/dL
  CARBON DIOXIDE: 22 mmol/L
  CREATINE PHOSPHOKINASE: 129.33 u/L
  CREATININE: 0.13 mg/dL
  LACTATE DEHYDROGENASE: 74.33 u/L
  TOTAL BILIRUBIN: 0.1 mg/dL
  TOTAL PROTEIN: 4.67 G/DL
  URIC ACID: 0.63 mg/dL
[5]
  ABSOLUTE BASOPHIL: 0 CELLS/uL
  ABSOLUTE EOSINOPHIL: 51.33 CELLS/uL
  ABSOLUTE LYMPHOCYTE: 9774.33 CELLS/uL
  ABSOLUTE MONOCYTE: 51.33 CELLS/uL
  ABSOLUTE SEGMENTED NEUTROPHIL: 823 CELLS/uL
  BASOPHIL: 0%
  EOSINOPHIL: 0.67%
  ERYTHROCYTE COUNT: 4.75 x10E6/uL
  HEMATOCRIT: 30.63%
  HEMOGLOBIN: 12.1 G/DL
  LYMPHOCYTE: 91.33%
  MEAN CORPUSCULAR HEMOGLOBIN CONCENTRATION: 39.5 G/DL
  MEAN CORPUSCULAR VOLUME: 64.5 fL
  NUCLEATED RED BLOOD CELLS: 0 /100WBC
  PLATELET COUNT: 848.67 x10E3/uL
  ALANINE AMINOTRANSFERASE: 54.67 u/L
  ALBUMIN: 4.57 G/DL
  ALKALINE PHOSPHATASE: 365.33 u/L
  ASPARTATE AMINOTRANSFERASE: 98.33 u/L
  BLOOD UREA NITROGEN: 12.33 mg/dL
  CARBON DIOXIDE: 27 mmol/L
  CREATINE PHOSPHOKINASE: 885.67 u/L
  CREATININE: 0.27 mg/dL
  LACTATE DEHYDROGENASE: 151.33 u/L
  TOTAL BILIRUBIN: 0.13 mg/dL
  TOTAL PROTEIN: 5.73 G/DL
  URIC ACID: 0.97 mg/dL
[6]
  ABSOLUTE BASOPHIL: 0 CELLS/uL
  ABSOLUTE EOSINOPHIL: 17.33 CELLS/uL
  ABSOLUTE LYMPHOCYTE: 10964.5 CELLS/uL
  ABSOLUTE MONOCYTE: 176.17 CELLS/uL
  ABSOLUTE SEGMENTED NEUTROPHIL: 858.67 CELLS/uL
  BASOPHIL: 0%
  EOSINOPHIL: 0.17%
  ERYTHROCYTE COUNT: 5.66 x10E6/uL
  HEMATOCRIT: 35.15%
  HEMOGLOBIN: 14.03 G/DL
  LYMPHOCYTE: 91.17%
  MEAN CORPUSCULAR HEMOGLOBIN CONCENTRATION: 39.97 G/DL
  MEAN CORPUSCULAR VOLUME: 62.08 fL
  NUCLEATED RED BLOOD CELLS: 0 /100WBC
  ALANINE AMINOTRANSFERASE: 54.33 u/L
  ALBUMIN: 4.53 G/DL
  ALKALINE PHOSPHATASE: 352 u/L
  ASPARTATE AMINOTRANSFERASE: 82 u/L
  CARBON DIOXIDE: 33 mmol/L
  CREATINE PHOSPHOKINASE: 171.5 u/L
  CREATININE: 0.19 mg/dL
  LACTATE DEHYDROGENASE: 147.33 u/L
  TOTAL BILIRUBIN: 0.17 mg/dL
  TOTAL PROTEIN: 5.83 G/DL
[7]
  ABSOLUTE BASOPHIL: 0 CELLS/uL
  ABSOLUTE EOSINOPHIL: 14.83 CELLS/uL
  ABSOLUTE LYMPHOCYTE: 8599.83 CELLS/uL
  ABSOLUTE SEGMENTED NEUTROPHIL: 668 CELLS/uL
  BASOPHIL: 0%
  EOSINOPHIL: 0.17%
  ERYTHROCYTE COUNT: 5.49 x10E6/uL
  HEMATOCRIT: 33.87%
  HEMOGLOBIN: 13.08 G/DL
  LYMPHOCYTE: 92.33%
  MEAN CORPUSCULAR HEMOGLOBIN CONCENTRATION: 38.63 G/DL
  MEAN CORPUSCULAR VOLUME: 61.8 fL
  NUCLEATED RED BLOOD CELLS: 0 /100WBC
  PLATELET COUNT: 1292.17 x10E3/uL
  ALANINE AMINOTRANSFERASE: 74.17 u/L
  ALBUMIN: 5.1 G/DL
  ALKALINE PHOSPHATASE: 331.67 u/L
  ASPARTATE AMINOTRANSFERASE: 84.67 u/L
  BLOOD UREA NITROGEN: 15.33 mg/dL
  CARBON DIOXIDE: 31.67 mmol/L
  CREATINE PHOSPHOKINASE: 252 u/L
  CREATININE: 0.24 mg/dL
  LACTATE DEHYDROGENASE: 121.33 u/L
  TOTAL BILIRUBIN: 0.1 mg/dL
  TOTAL PROTEIN: 6.25 G/DL
[8]
  ABSOLUTE BASOPHIL: 0 CELLS/uL
  ABSOLUTE EOSINOPHIL: 60.33 CELLS/uL
  ABSOLUTE LYMPHOCYTE: 18749.67 CELLS/uL
  ABSOLUTE MONOCYTE: 284.33 CELLS/uL
  ABSOLUTE SEGMENTED NEUTROPHIL: 1839 CELLS/uL
  BASOPHIL: 0%
  EOSINOPHIL: 0.33%
  ERYTHROCYTE COUNT: 5.51 x10E6/uL
  HEMATOCRIT: 33.9%
